Experimental data as given in the CheMixHub ionic liquid set.

Assay: xn = mol fraction of the nth substance listed
Settings: 101 kPa

CCCCCCCCCCCCCCCC[n+]1ccccc1.[Cl-] + C[C@H](N)C(=O)O + O
308.15 K
Settings	electrical conductivity [S/m]
x2 = 0, x1 = 5.4e-07	0.000222
x2 = 0, x1 = 9e-07	0.00029
x2 = 0, x1 = 1.62e-06	0.0004
x2 = 0, x1 = 2.34e-06	0.000465
x2 = 0, x1 = 2.88e-06	0.000581
x2 = 0, x1 = 3.78e-06	0.000705
x2 = 0, x1 = 4.5e-06	0.000794
x2 = 0, x1 = 5.59e-06	0.000937
x2 = 0, x1 = 6.85e-06	0.00106
x2 = 0, x1 = 7.93e-06	0.001222
x2 = 0, x1 = 9.01e-06	0.001438
x2 = 0, x1 = 1.009e-05	0.00159
x2 = 0, x1 = 1.117e-05	0.001701
x2 = 0, x1 = 1.442e-05	0.00209
x2 = 0, x1 = 1.55e-05	0.00219
x2 = 0, x1 = 1.766e-05	0.00237
x2 = 0, x1 = 1.982e-05	0.00248
x2 = 0, x1 = 2.18e-05	0.00259
x2 = 0, x1 = 2.397e-05	0.00264
x2 = 0, x1 = 2.595e-05	0.00278
x2 = 0, x1 = 2.991e-05	0.00297
x2 = 0, x1 = 3.406e-05	0.00314
x2 = 0, x1 = 3.784e-05	0.00328
x2 = 0, x1 = 4.162e-05	0.00342
x2 = 0, x1 = 4.541e-05	0.00356
x2 = 0, x1 = 4.919e-05	0.00369
x2 = 0, x1 = 5.099e-05	0.00375
x2 = 0, x1 = 5.982e-05	0.00403
x2 = 0, x1 = 6.829e-05	0.00432
x2 = 0, x1 = 7.64e-05	0.00454
x2 = 0, x1 = 8.415e-05	0.00477
x2 = 0, x1 = 9.171e-05	0.00497
x2 = 0, x1 = 9.892e-05	0.00516
x2 = 0, x1 = 0.0001058	0.00533
x2 = 0, x1 = 0.0001124	0.0055
x2 = 0, x1 = 0.0001189	0.00565
x2 = 2.252e-05, x1 = 1.08e-06	0.000338
x2 = 2.252e-05, x1 = 2.34e-06	0.00063
x2 = 2.252e-05, x1 = 3.42e-06	0.000917
x2 = 2.252e-05, x1 = 4.69e-06	0.00119
x2 = 2.252e-05, x1 = 5.77e-06	0.00147
x2 = 2.252e-05, x1 = 6.85e-06	0.001711
x2 = 2.252e-05, x1 = 7.93e-06	0.001903
x2 = 2.252e-05, x1 = 9.19e-06	0.00208
x2 = 2.252e-05, x1 = 1.027e-05	0.00219
x2 = 2.252e-05, x1 = 1.135e-05	0.00241
x2 = 2.252e-05, x1 = 1.243e-05	0.00258
x2 = 2.252e-05, x1 = 1.352e-05	0.00273
x2 = 2.252e-05, x1 = 1.46e-05	0.00288
x2 = 2.252e-05, x1 = 1.568e-05	0.00298
x2 = 2.252e-05, x1 = 1.784e-05	0.00318
x2 = 2.252e-05, x1 = 2e-05	0.00331
x2 = 2.252e-05, x1 = 2.217e-05	0.00341
x2 = 2.252e-05, x1 = 2.433e-05	0.00351
x2 = 2.252e-05, x1 = 2.631e-05	0.00358
x2 = 2.252e-05, x1 = 3.046e-05	0.00382
x2 = 2.252e-05, x1 = 3.442e-05	0.00393
x2 = 2.252e-05, x1 = 3.838e-05	0.00411
x2 = 2.252e-05, x1 = 4.235e-05	0.00422
x2 = 2.252e-05, x1 = 4.613e-05	0.00439
x2 = 2.252e-05, x1 = 4.992e-05	0.00462
x2 = 2.252e-05, x1 = 5.172e-05	0.00468
x2 = 2.252e-05, x1 = 6.073e-05	0.00486
x2 = 2.252e-05, x1 = 6.938e-05	0.00502
x2 = 2.252e-05, x1 = 7.767e-05	0.00529
x2 = 2.252e-05, x1 = 8.542e-05	0.00541
x2 = 2.252e-05, x1 = 9.316e-05	0.00565
x2 = 2.252e-05, x1 = 0.0001004	0.00593
x2 = 2.252e-05, x1 = 0.0001074	0.00614
x2 = 2.252e-05, x1 = 0.0001142	0.00629
x2 = 2.252e-05, x1 = 0.0001207	0.00635
x2 = 0.0003926, x1 = 6.912e-05	0.0057
x2 = 0.0003926, x1 = 7.742e-05	0.00596
x2 = 0.0003927, x1 = 1.08e-06	0.000964
x2 = 0.0003927, x1 = 2.35e-06	0.00116
x2 = 0.0003927, x1 = 3.43e-06	0.00138
x2 = 0.0003927, x1 = 4.51e-06	0.001535
x2 = 0.0003927, x1 = 5.78e-06	0.00176
x2 = 0.0003927, x1 = 6.86e-06	0.001924
x2 = 0.0003927, x1 = 7.94e-06	0.00212
x2 = 0.0003927, x1 = 9.02e-06	0.00222
x2 = 0.0003927, x1 = 1.029e-05	0.0024
x2 = 0.0003927, x1 = 1.137e-05	0.00252
x2 = 0.0003927, x1 = 1.245e-05	0.00271
x2 = 0.0003927, x1 = 1.354e-05	0.00279
x2 = 0.0003927, x1 = 1.462e-05	0.00297
x2 = 0.0003927, x1 = 1.57e-05	0.00311
x2 = 0.0003927, x1 = 1.787e-05	0.0034
x2 = 0.0003927, x1 = 2.003e-05	0.0035
x2 = 0.0003927, x1 = 2.22e-05	0.00366
x2 = 0.0003927, x1 = 2.418e-05	0.00389
x2 = 0.0003927, x1 = 2.635e-05	0.00397
x2 = 0.0003927, x1 = 3.032e-05	0.00414
x2 = 0.0003927, x1 = 3.447e-05	0.00426
x2 = 0.0003927, x1 = 3.844e-05	0.00448
x2 = 0.0003927, x1 = 4.223e-05	0.00473
x2 = 0.0003927, x1 = 4.602e-05	0.00487
x2 = 0.0003927, x1 = 4.981e-05	0.00495
x2 = 0.0003927, x1 = 5.161e-05	0.00502
x2 = 0.0003927, x1 = 6.064e-05	0.00532

CC[NH3+].O=[N+]([O-])[O-] + C[N+](=O)[O-]
298.15 K
Settings	electrical conductivity [S/m]	viscosity [mPa·s]
x1 = 0.0084	0.0847	0.671
x2 = 0	2.27	37.5
x2 = 0.5996	2.42	5.95

CCCCCCCCCCCCOS(=O)(=O)[O-].[Na+] + Cc1ncc(C[n+]2csc(CCO)c2C)c(N)n1.Cl.[Cl-] + O
electrical conductivity [S/m]
Settings	288.15 K	298.15 K	308.15 K	318.15 K
x1 = 7.35e-06, x2 = 0	0.00102	0.00389	0.00521	0.0057
x1 = 1.463e-05, x2 = 0	0.00278	0.00675	0.0087	0.00954
x1 = 2.184e-05, x2 = 0	0.00515	0.00896	0.012	0.0133
x1 = 2.898e-05, x2 = 0	0.00708	0.0117	0.0152	0.017
x1 = 3.604e-05, x2 = 0	0.00931	0.0145	0.0186	0.0208
x1 = 4.303e-05, x2 = 0	0.0116	0.0171	0.0219	0.0244
x1 = 4.997e-05, x2 = 0	0.0139	0.0198	0.0251	0.0279
x1 = 5.683e-05, x2 = 0	0.0162	0.0224	0.0283	0.0313
x1 = 6.362e-05, x2 = 0	0.0186	0.0244	0.0315	0.0347
x1 = 7.036e-05, x2 = 0	0.0202	0.027	0.0345	0.0381
x1 = 7.703e-05, x2 = 0	0.0225	0.0296	0.0375	0.0414
x1 = 8.364e-05, x2 = 0	0.0247	0.0321	0.0405	0.0448
x1 = 9.018e-05, x2 = 0	0.0269	0.0347	0.0432	0.0481
x1 = 9.658e-05, x2 = 0	0.0286	0.0371	0.0461	0.0513
x1 = 0.0001031, x2 = 0	0.0307	0.0395	0.0491	0.0543
x1 = 0.0001094, x2 = 0	0.0328	0.0419	0.0517	0.0573
x1 = 0.0001157, x2 = 0	0.035	0.0442	0.0544	0.0602
x1 = 0.000122, x2 = 0	0.037	0.0466	0.0568	0.0632
x1 = 0.0001281, x2 = 0	0.039	0.0488	0.0602	0.0659
x1 = 0.0001342, x2 = 0	0.0411	0.0509	0.0625	0.0687
x1 = 0.0001404, x2 = 0	0.0425	0.0524	0.0647	0.0711
x1 = 0.0001465, x2 = 0	0.0432	0.0543	0.0667	0.0734
x1 = 0.0001524, x2 = 0	0.0444	0.0559	0.0685	0.0755
x1 = 0.0001584, x2 = 0	0.0452	0.0571	0.0701	0.0774
x1 = 0.0001641, x2 = 0	0.0462	0.0582	0.0716	0.079
x1 = 0.0001699, x2 = 0	0.0469	0.0592	0.0729	0.0805
x1 = 0.0001757, x2 = 0	0.0478	0.0601	0.0742	0.0819
x1 = 0.0001814, x2 = 0	0.0487	0.0609	0.0753	0.0832
x1 = 0.000187, x2 = 0	0.0495	0.0617	0.0764	0.0845
x1 = 0.0001928, x2 = 0	0.0501	0.0626	0.0775	0.0857
x1 = 0.0001982, x2 = 0	0.0507	0.0634	0.0785	0.0868
x1 = 0.0002038, x2 = 0	0.0513	0.0641	0.0796	0.0879
x1 = 0.0002092, x2 = 0	0.0517	0.0648	0.0805	0.089
x1 = 0.0002147, x2 = 0	0.0521	0.0654	0.0815	0.0902
x1 = 0.00022, x2 = 0	0.0527	0.066	0.0824	0.0912
x1 = 0.0002254, x2 = 0	0.0532	0.0666	0.0834	0.0924
x1 = 0.0002306, x2 = 0	0.0537	0.0673	0.0843	0.0936
x1 = 0.0002358, x2 = 0	0.0542	0.068	0.0852	0.0946
x1 = 0.0002411, x2 = 0	0.0548	0.0686	0.0861	0.0956
x1 = 0.0002463, x2 = 0	0.0554	0.0693	0.087	0.0966
